This is an account of results in patent publication US20090029992A1, “SUBSTITUTED PYRAZOLE COMPOUNDS” (priority 2007, published 2009).

The target in assay [1] is T1, N-terminal His-tagged human Src (Homo sapiens, UniProt P12931).
T1 construct: His (N); purchased Upstate USA Inc, 706 Forest Street, Charlottesville, Va
Briefly: Src kinase inhibition assay (33P-ATP filter assay). The format is biochemical. The method, then:
Compounds were assayed for Src kinase inhibitory activity using N-terminal His-tagged human Src (Upstate USA Inc, 706 Forest Street, Charlottesville, Va.). Serial dilutions of compound were assayed in a final reaction volume of 25 μL by incubating a solution of the above Src kinase (5-10 mU), 8 mM MOPS (3-(N-morpholino) propanesulfonic acid) pH 7.0, 0.2 mM EDTA (ethylenediamine tetracetic acid), 250 μM amino acid sequence KVEKIGEGTYGVVYK (Upstate USA Inc, 706 Forest Street, Charlottesville, Va.), and 10 mM magnesium acetate and [γ-^33P-ATP] (specific activity of about 500 cpm/μmol, concentration as required). The reaction was initiated by the addition of the magnesium acetate and [γ-^33P-ATP] mixture. After incubation for 40 minutes at room temperature, the reaction was stopped by the addition of 5 μL of a 3% phosphoric acid solution. A 10 μL aliquote of the reaction was then spotted onto a P30 filtermat (PerkinElmer, Wellesley, Mass.) and washed three times for five minutes in 75 mM phosphoric acid and once in methanol prior to drying and scintillation counting. Inhibition of Src activity was determined by comparison to assays that contained no inhibitor.

Assay [2] concerns the target T2, N-terminal GST-tagged recombinant human Flt3, residues 564-end (Homo sapiens, UniProt P36888).
T2 construct: recombinant human Flt3, residues 564-end; GST (N); purchased Upstate USA Inc, 706 Forest Street, Charlottesville, Va
T2 sequence (P36888 564-993 limits assumed): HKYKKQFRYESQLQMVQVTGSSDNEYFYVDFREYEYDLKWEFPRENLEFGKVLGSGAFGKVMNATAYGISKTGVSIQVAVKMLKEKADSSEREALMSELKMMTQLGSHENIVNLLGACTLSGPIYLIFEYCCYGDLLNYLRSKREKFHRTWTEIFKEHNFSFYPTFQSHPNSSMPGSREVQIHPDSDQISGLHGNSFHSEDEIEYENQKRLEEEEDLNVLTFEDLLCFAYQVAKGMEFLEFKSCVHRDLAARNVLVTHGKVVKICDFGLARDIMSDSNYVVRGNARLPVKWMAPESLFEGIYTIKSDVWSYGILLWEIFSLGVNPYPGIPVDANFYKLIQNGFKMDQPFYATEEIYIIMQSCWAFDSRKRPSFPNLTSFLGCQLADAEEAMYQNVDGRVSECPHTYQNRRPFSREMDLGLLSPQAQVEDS
The experiment in a line: Flt3 kinase inhibition assay (33P-ATP filter assay). The format is biochemical. Conditions: 40 minutes at room temperature. On the procedure: (§1) Compounds were assayed for Flt3 kinase inhibitory activity using N-terminal GST-tagged recombinant human Flt3, residues 564-end (Upstate USA Inc, 706 Forest Street, Charlottesville, Va.). Serial dilutions of compound were assayed in a final reaction volume of 25 μL by incubating a solution of the above Flt3 kinase (5-10 mU), 8 mM MOPS (3-(N-morpholino) propanesulfonic acid) pH 7.0, 0.2 mM EDTA (ethylenediamine tetracetic acid), 50 μM amino acid sequence EAIYAAPFAKKK (Upstate USA Inc, 706 Forest Street, Charlottesville, Va.), and 10 mM magnesium acetate and [γ-^33P-ATP] (specific activity of about 500 cpm/μmol, concentration as required). The reaction was initiated by the addition of the magnesium acetate and [γ-^33P-ATP] mixture. After incubation for 40 minutes at room temperature, the reaction was stopped by the addition of 5 μL of a 3% phosphoric acid solution. A 10 μL aliquote of the reaction was then spotted onto a P30 filtermat (PerkinElmer, Wellesley, Mass.) and washed three times for five minutes in 75 mM phosphoric acid and once in methanol prior to drying and scintillation counting. Inhibition of Flt3 activity was determined by comparison to assays that contained no inhibitor.

In assay [3] the target is T3, N-terminal His6-tagged recombinant human KDR, residues 790-end (Homo sapiens, UniProt P35968).
T3 construct: recombinant human KDR, residues 790-end; His6 (N); purchased Upstate USA Inc, 706 Forest Street, Charlottesville, Va
Briefly: KDR kinase inhibition assay (33P-ATP filter assay). The format is biochemical. The method, then:
as §1, with “KDR” for “Flt3”, “His6-tagged” for “GST-tagged”, “KDR,” for “Flt3,”, “790-end” for “564-end”, “0.33 mg/mL myelin basic protein” for “50 μM amino acid sequence EAIYAAPFAKKK”

The next assay deals with HCT116 cells. The experiment in a line: Whole cell cytotoxicity assay, Sulforhodamine B. Format: cell-based. Conditions: Homo sapiens, HCT-116, HCT116, 96 hours incubation, SRB; for GI50: read-out: GI50 HCT116 cell growth; for IC50: read-out: IC50 values in this assay (HCT116 cell growth). The method, then: Human tumor-derived cell lines, HCT116 or MCF7 (ATCC) were plated in a 96 well plate in DMEM containing 10% fetal bovine serum and 2 mM L-glutamine at a density of 500 HCT116 cells or 1,000 MCF7 cells per well and incubated at 37° C., 5% CO2, for 24 hours prior to the addition of experimental compounds. Compounds were added using the dilution series indicated to duplicate plates and the cells were incubated in media plus compound for 96 hours. An additional plate was fixed in 10% TCA at the time of the addition of compound to provide a measurement of the cell population at time zero, the time of drug addition. Following the 96 hour incubation, cells were fixed in situ by gently aspirating off the culture media and then adding 50 ul of ice cold 10% TCA per well and incubation at 4° C. for 60 minutes. The plates were washed with tap water five times and allowed to air dry for 5 minute. 50 ul of a 0.4% (w/v) Sulforhodamine B solution in 1% (v/v) acetic acid was added per well and the cells were incubated for 30 minutes at room temperature. Following staining, plates were washed four times with 1% acetic acid to remove any unbound dye and then allowed to air dry for 5 minutes. The stain was solubilized with 100 ul of 10 mM Tris pH 10.5 per well and placed on an orbital rotator for 5 minutes. The absorbance was read at 570 nm. Percentage growth was calculated using the absorbance readings from the time zero plate (Tz) and the dilution series plate […] which included a column of cells grown in media without compound as a control (C) using the formulas:
[(Ti−Tz)/(C−Tz)]×100 for concentrations for which Ti>/=Tz
[(Ti−Tz)/Tz]×100 for concentrations for which Ti<Tz.
Three dose response parameters were calculated for each experimental agent. Growth inhibition of 50% (GI50) was calculated from [(Ti−Tz)/(C−Tz)]×100=50, which was the drug concentration resulting in a 50% reduction in the net protein increase (as measured by SRB staining) in control cells during the drug incubation. The drug concentration resulting in total growth inhibition (TGI) was calculated from Ti=Tz. The LC50 (concentration of drug resulting in a 50% reduction in the measured protein at the end of the drug treatment as compared to that at the beginning) indicating a net loss of cells following treatment ws calculated from [(Ti−Tz)/Tz]×100=−50. Values are calculated for each of these three parameters if the level of activity was reached; however, if the effect was not reached or was exceeded, the value for that parameter is expressed as greater or less than the maximum or minimum concentration tested.

Where [4] appears, read: group with IC50 greater than 100 nM.

T3 sequence (P35968 790-1356 limits assumed): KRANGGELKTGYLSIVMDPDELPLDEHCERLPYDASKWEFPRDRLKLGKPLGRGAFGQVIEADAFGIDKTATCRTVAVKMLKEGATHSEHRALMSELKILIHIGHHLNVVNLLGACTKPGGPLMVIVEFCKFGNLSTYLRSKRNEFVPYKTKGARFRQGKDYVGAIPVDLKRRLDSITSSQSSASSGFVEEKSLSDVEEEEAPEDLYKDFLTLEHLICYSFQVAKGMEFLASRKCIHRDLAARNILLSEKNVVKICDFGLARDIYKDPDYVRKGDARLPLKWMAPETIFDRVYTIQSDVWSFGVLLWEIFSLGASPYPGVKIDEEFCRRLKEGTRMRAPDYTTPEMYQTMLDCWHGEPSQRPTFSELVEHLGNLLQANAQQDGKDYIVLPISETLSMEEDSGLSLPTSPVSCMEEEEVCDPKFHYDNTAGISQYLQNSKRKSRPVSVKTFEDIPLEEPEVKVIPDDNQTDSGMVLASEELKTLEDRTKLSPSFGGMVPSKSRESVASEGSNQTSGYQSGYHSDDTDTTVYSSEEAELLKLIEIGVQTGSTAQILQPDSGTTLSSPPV
T1 sequence (P12931 whole entry): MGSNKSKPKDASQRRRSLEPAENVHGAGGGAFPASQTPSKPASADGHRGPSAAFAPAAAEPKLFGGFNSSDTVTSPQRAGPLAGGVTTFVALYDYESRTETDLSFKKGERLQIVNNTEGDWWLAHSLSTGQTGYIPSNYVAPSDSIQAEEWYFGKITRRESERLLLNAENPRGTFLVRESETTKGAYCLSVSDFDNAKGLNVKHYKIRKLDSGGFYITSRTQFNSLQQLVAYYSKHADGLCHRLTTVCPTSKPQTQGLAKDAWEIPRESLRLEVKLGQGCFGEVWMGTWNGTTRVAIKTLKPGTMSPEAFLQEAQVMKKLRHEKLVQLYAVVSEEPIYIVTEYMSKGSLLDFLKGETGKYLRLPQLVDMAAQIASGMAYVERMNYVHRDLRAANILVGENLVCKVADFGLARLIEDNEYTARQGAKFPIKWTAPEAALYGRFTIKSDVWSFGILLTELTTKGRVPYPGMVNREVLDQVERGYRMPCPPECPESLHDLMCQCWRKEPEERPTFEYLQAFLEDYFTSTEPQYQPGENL

For orientation: IC50 means the concentration that inhibits the measured activity by half. As usually defined, the GI50 is the concentration giving 50% growth inhibition. Take `Cc1cc(Nc2cc(N(C)CCN(C)C)nc(-c3cccc4ccccc34)n2)n[nH]1` [Example 141, N^4-(2-(dimethylamino)ethyl)-N^4-methyl-N^6-(5-methyl-1H-pyrazol-3-yl)-2-(naphthalen-1-yl)pyrimidine-4,6-diamine]: the results for the IC50 in assay [1] (setting [4]), in assay [2] and in assay [3] (setting [4]) were no more than 1000 nM, no more than 100 nM and no more than 1000 nM, respectively. The GI50 in the assay with HCT116 cells is no more than 1000 nM.
As for `Cc1cc(Nc2cc(NC3CCOCC3)nc(-c3ccc4ccccc4c3)n2)n[nH]1` [Example 128, N^4-(5-methyl-1H-pyrazol-3-yl)-2-(naphthalen-2-yl)-N^6-(tetrahydro-2H-pyran-4-yl)pyrimidine-4,6-diamine], the IC50 in assay [1] (40 minutes at room temperature) is no more than 100 nM; in assay [2], no more than 100 nM; in assay [3] (40 minutes at room temperature), no more than 100 nM; in the assay with HCT116 cells, 1000 to 10000 nM.
Take `Cc1cc(Nc2cc(N(C)CCN(C)C)nc(-c3ccccc3Cl)n2)n[nH]1` [Compound 50, 2-(2-chlorophenyl)-N4-(2-(dimethylamino)ethyl)-N4-methyl-N6-(5-methyl-1H-pyrazol-3-yl)pyrimidine-4,6-diamine]: the IC50 is no more than 100 nM in assay [1] (40 minutes at room temperature); no more than 1000 nM in assay [1] (setting [4]); no more than 100 nM in assay [2]; no more than 100 nM in assay [3] (40 minutes at room temperature); 1000 to 10000 nM in the assay with HCT116 cells. The GI50 in the assay with HCT116 cells was no more than 1000 nM.
On to `Cc1cc(Nc2cc(N3CCN(C)CC3)nc(-c3ccc(F)cc3F)n2)n[nH]1` [Example 189, 2-(2,4-difluorophenyl)-N-(5-methyl-1H-pyrazol-3-yl)-6-(4-methylpiperazin-1-yl)pyrimidin-4-amine], for which the IC50 was no more than 1000 nM in assay [1] (setting [4]), no more than 100 nM in assay [2], no more than 1000 nM in assay [3] (setting [4]) and 1000 to 10000 nM in the assay on HCT116 cells.
With `Cc1cc(Nc2cc(N(C)CCN(C)C)nc(-c3cc(F)ccc3F)n2)n[nH]1` [Example 183, 2-(2,5-difluorophenyl)-N^4-(2-(dimethylamino)ethyl)-N^4-methyl-N^6-(5-methyl-1H-pyrazol-3-yl)pyrimidine-4,6-diamine], the IC50 in assay [1] (setting [4]) is no more than 1000 nM; in assay [2], no more than 100 nM; in assay [3] (40 minutes at room temperature) it was no more than 100 nM; in the assay with HCT116 cells, 1000 to 10000 nM.
As to `Cc1cc(Nc2cc(N(C)CCN(C)C)nc(-c3ccccc3C(F)(F)F)n2)n[nH]1` [Compound 114, N^4-(2-(dimethylamino)ethyl)-N^4-methyl-N^6-(5-methyl-1H-pyrazol-3-yl)-2-(2-(trifluoromethyl)phenyl)pyrimidine-4,6-diamine], the IC50 is no more than 1000 nM in assay [1] (setting [4]), no more than 100 nM in assay [2], no more than 100 nM in assay [3] (40 minutes at room temperature) and 1000 to 10000 nM with HCT116 cells.
`Cc1cc(Nc2cc(N(C)CCN(C)C)nc(-c3cccc(C)c3C)n2)n[nH]1` [Example 182, N^4-(2-(dimethylamino)ethyl)-2-(2,3-dimethylphenyl)-N^4-methyl-N^6-(5-methyl-1H-pyrazol-3-yl)pyrimidine-4,6-diamine]: the IC50 in assay [1] (setting [4]) was no more than 1000 nM; in assay [2], no more than 100 nM; in assay [3] (setting [4]) it was no more than 1000 nM; in the assay on HCT116 cells, 1000 to 10000 nM.
Regarding `COc1ccccc1-c1nc(Nc2cc(C)[nH]n2)cc(N2CCN(C)CC2)n1` [Compound 43, 2-(2-methoxyphenyl)-N-(5-methyl-1H-pyrazol-3-yl)-6-(4-methylpiperazin-1-yl)pyrimidin-4-amine], the IC50 in assay [1] (setting [4]) is no more than 1000 nM; in assay [2], no more than 100 nM; in assay [3] (setting [4]), no more than 1000 nM; with HCT116 cells it was 1000 to 10000 nM.
As to `CCc1ccccc1-c1nc(Nc2cc(C)[nH]n2)cc(N(C)CCN(C)C)n1` [Example 186, N^4-(2-(dimethylamino)ethyl)-2-(2-ethylphenyl)-N^4-methyl-N^6-(5-methyl-1H-pyrazol-3-yl)pyrimidine-4,6-diamine], the IC50 is no more than 1000 nM in assay [1] (setting [4]), no more than 100 nM in assay [2], no more than 1000 nM in assay [3] (setting [4]) and 1000 to 10000 nM in the assay with HCT116 cells.
